Results on 12 compounds are retold here after BindingDB's records for doi:10.1016/s0960-894x(02)00682-0 (Bristol-Myers Squibb Pharmaceutical Research Institute, 2002).

Peptide text beside a SMILES is read from it. * marks the point of attachment. X11 = CCCCCC[C@H](N*)B1O[C@@H]2C[C@@H]3C[C@@H](C3(C)C)[C@]2(C)O1; X14 = CCCC[C@H](N*)B1O[C@@H]2C[C@@H]3C[C@@H](C3(C)C)[C@]2(C)O1

Test [1] deals with T1, Chymotrypsin-C (Homo sapiens, UniProt Q99895).
T1 sequence (Q99895 whole entry): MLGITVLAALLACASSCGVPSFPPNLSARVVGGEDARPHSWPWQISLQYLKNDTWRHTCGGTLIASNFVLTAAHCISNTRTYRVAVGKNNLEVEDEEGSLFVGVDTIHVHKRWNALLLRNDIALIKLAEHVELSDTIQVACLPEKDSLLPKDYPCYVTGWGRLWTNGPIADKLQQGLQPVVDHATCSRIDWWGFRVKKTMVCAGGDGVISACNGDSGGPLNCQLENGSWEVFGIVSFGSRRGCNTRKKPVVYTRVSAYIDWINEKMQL
Nature of the test: (§1) Inhibitory concentration against Human pancreatic Serine protease chymotrypsin.

Test [2] is described as follows: Inhibitory concentration against Human pancreatic Serine protease chymotrypsin.
Test [3] addresses T1, Chymotrypsin-C. As to the kind of experiment: ChEBML_197808.
Source text: as §1

For the compound `CC(C)[C@H](NC(=O)[C@H](CCC(=O)O)NC(=O)[C@@H](N)CC(=O)O)C(=O)N[C@H](C(=O)N1CCC[C@H]1C(=O)N[C@@H](CCc1ccc(C(F)(F)F)cc1)B1O[C@@H]2C[C@@H]3C[C@@H](C3(C)C)[C@]2(C)O1)C(C)C` [Peptide Boronic Acid analogue], in test [1], inhibition was half-maximal at 16 µM (IC50). The same measure, in the same setting: the figure for `CC[C@H](NC(=O)[C@@H]1CCCN1C(=O)[C@@H](NC(=O)[C@@H](NC(=O)[C@H](CCC(=O)O)NC(=O)[C@@H](N)CC(=O)O)C(C)C)C(C)C)B1O[C@@H]2C[C@@H]3C[C@@H](C3(C)C)[C@]2(C)O1` [Peptide Boronic Acid analogue] is greater than 60 µM. Turning to `Cc1ccc(CC[C@H](NC(=O)[C@@H]2CCCN2C(=O)[C@@H](NC(=O)[C@@H](NC(=O)[C@H](CCC(=O)O)NC(=O)[C@@H](N)CC(=O)O)C(C)C)C(C)C)B2O[C@@H]3C[C@@H]4C[C@@H](C4(C)C)[C@]3(C)O2)cc1` [Peptide Boronic Acid analogue], half-maximal inhibition in test [1] (IC50) required 3.7 µM. For `CCCCCC[C@H](NC(=O)[C@@H]1CCCN1C(=O)[C@@H](NC(=O)[C@@H](NC(=O)[C@H](CCC(=O)O)NC(=O)[C@@H](N)CC(=O)O)C(C)C)C(C)C)B1O[C@@H]2C[C@@H]3C[C@@H](C3(C)C)[C@]2(C)O1` [Peptide Boronic Acid analogue] (H-DEVVP-X11), in test [1], the IC50 (usually the concentration that inhibits the measured activity by half) came to 0.42 µM. In test [1], `CCCC[C@H](NC(=O)[C@@H]1CCCN1C(=O)[C@@H](NC(=O)[C@@H](NC(=O)[C@H](CCC(=O)O)NC(=O)[C@@H](N)CC(=O)O)C(C)C)C(C)C)B1O[C@@H]2C[C@@H]3C[C@@H](C3(C)C)[C@]2(C)O1` [Peptide Boronic Acid analogue] (H-DEVVP-X14) gave a 50% inhibitory concentration (IC50) of 2.1 µM. In test [2], `CC(C)c1ccc(CC[C@H](NC(=O)[C@@H]2CCCN2C(=O)[C@@H](NC(=O)[C@@H](NC(=O)[C@H](CCC(=O)O)NC(=O)[C@@H](N)CC(=O)O)C(C)C)C(C)C)B2O[C@@H]3C[C@@H]4C[C@@H](C4(C)C)[C@]3(C)O2)cc1` [Peptide Boronic Acid analogue] returned a half-maximal inhibitory concentration (IC50) greater than 60 µM. In the case of `CC(C)[C@H](NC(=O)[C@H](CCC(=O)O)NC(=O)[C@@H](N)CC(=O)O)C(=O)N[C@H](C(=O)N1CCC[C@H]1C(=O)N[C@@H](CCCCc1ccccc1)B1O[C@@H]2C[C@@H]3C[C@@H](C3(C)C)[C@]2(C)O1)C(C)C` [Peptide Boronic Acid analogue], the IC50 in test [1] was 1.9 µM.

Consider `COc1ccc(CC[C@H](NC(=O)[C@@H]2CCCN2C(=O)[C@@H](NC(=O)[C@@H](NC(=O)[C@H](CCC(=O)O)NC(=O)[C@@H](N)CC(=O)O)C(C)C)C(C)C)B2O[C@@H]3C[C@@H]4C[C@@H](C4(C)C)[C@]3(C)O2)cc1` [Peptide Boronic Acid analogue], for which the midpoint of inhibition in test [2], the IC50, lay at 20 µM. In other words, the double-digit micromolar range. In turn, `CC(C)[C@H](NC(=O)[C@H](CCC(=O)O)NC(=O)[C@@H](N)CC(=O)O)C(=O)N[C@H](C(=O)N1CCC[C@H]1C(=O)N[C@@H](CCc1ccc(C2CCCCC2)cc1)B1O[C@@H]2C[C@@H]3C[C@@H](C3(C)C)[C@]2(C)O1)C(C)C` [Peptide Boronic Acid analogue] returned a half-inhibitory concentration (IC50) in test [2] greater than 60 µM. Turning to `CC(C)[C@H](NC(=O)[C@H](CCC(=O)O)NC(=O)[C@@H](N)CC(=O)O)C(=O)N[C@H](C(=O)N1CCC[C@H]1C(=O)N[C@@H](CCc1ccc(C(C)(C)C)cc1)B1O[C@@H]2C[C@@H]3C[C@@H](C3(C)C)[C@]2(C)O1)C(C)C` [Peptide Boronic Acid analogue], the IC50 in test [2] was greater than 60 µM.

`CC(C)[C@H](NC(=O)[C@H](CCC(=O)O)NC(=O)[C@@H](N)CC(=O)O)C(=O)N[C@H](C(=O)N1CCC[C@H]1C(=O)N[C@@H](CCc1ccc(-c2ccccc2)cc1)B1O[C@@H]2C[C@@H]3C[C@@H](C3(C)C)[C@]2(C)O1)C(C)C` [Peptide Boronic Acid analogue] yielded a half-maximal inhibitory concentration (IC50) in test [3] of 48 µM. For `CC(C)[C@H](NC(=O)[C@H](CCC(=O)O)NC(=O)[C@@H](N)CC(=O)O)C(=O)N[C@H](C(=O)N1CCC[C@H]1C(=O)N[C@@H](CCc1ccc(Oc2ccccc2)cc1)B1O[C@@H]2C[C@@H]3C[C@@H](C3(C)C)[C@]2(C)O1)C(C)C` [Peptide Boronic Acid analogue], the IC50 in test [2] is greater than 60 µM.
